In US20160194358A1, “LINEAR PEPTIDE ANTIBIOTCS” (priority 2013, published 2016):
Converted amounts (≈) assume the structure as drawn. Where two headings read alike, the source gives them in different places. *1 amine or outer side, *2 acyl side, *3 side chain or, on linkers, in order; H or OH if unused. Where a SMILES comes first, the peptide text is derived from it. [ ]: non-standard residue; d: D form. The star is where a group is joined. boroAla((+)-pinanediol) = C[C@H](N*)B1O[C@@H]2C[C@@H]3C[C@@H](C3(C)C)[C@]2(C)O1; Benzoyl(4-(4-Cl-Ph)) = O=C(c1ccc(-c2ccc(Cl)cc2)cc1)*; Ethanesulfonyl(2-NHDecyl) = CCCCCCCCCCNCCS(=O)(=O)*; Propanoyl(3-decylamino) = CCCCCCCCCCNCCC(=O)*; X18 = CCCCc1ccc(-c2ccc(S(=O)(=O)*)cn2)cc1; X27 = CCCCCCCCN1CCN([*:1])C(C(=O)[*:2])C1; X21 = O=S(=O)(c1ccc(-c2ccc(Cl)cc2)nc1)*; X30 = CCCCc1ccc(-c2ncc(C(=O)*)cn2)cc1; X31 = O=S(=O)(c1ccc(-c2ccccc2)cn1)*; X26 = CCCCCCCCc1ccc(C(=O)*)c(C)c1; X36 = CC(C)C#CC#Cc1ccc(C(=O)*)cc1; X29 = CCCCCCCCCCN(C)CCS(=O)(=O)*; NDecylGly = CCCCCCCCCCNCC(=O)O; X19 = CCCCCCCCCCN(C)CCC(=O)*; X22 = C[C@H](N*)C(=O)C(=O)O; X17 = CCCCCCCCCNCCCC(=O)*; boroAla = C[C@H](N*)B(O)O; Dab = NCC[C@H](N)C(=O)O; Dap = NC[C@H](N)C(=O)O

Tests used:
[1] = tested on: Escherichia coli strain MC4100 IMP-4213, which harbors an LptD mutation; conditions: E. coli MC4100 IMP-4213; 35° C., 22 hours
Protocol: (§1) In vitro antimicrobial activity of each compound was determined by measuring minimal inhibitor concentrations (MICs) using the broth micro-dilution technique as approved by the Clinical and Laboratory Standards Institute (CLSI). Antibacterial activity was measure against two strains of bacteria: 1) methicillin resistant Staphylococcus aureus (MRSA) strain USA300 (NRS384) and 2) Escherichia coli strain MC4100 IMP-4213, which harbors an LptD mutation. Bacterial inocula were prepared by scraping cells into 1 mL of testing media (cation adjusted Mueller Hinton Broth supplemented with 0.002% v/v Tween-80) and diluting to a final OD600nm of 0.01.
(§2) Test compounds were prepared in DMSO at a concentration of 10 mg/ml. These compound stocks were diluted into testing media at a concentration of 64 μg/ml and 9 serial 1:2 dilutions were made in the same media, in 96-well U bottom microtiter dishes. Bacterial inocula were added to the two fold serial dilutions of test compounds to a final density of OD OD600nm of 0.0005 and incubated stationarily at 35° C. for 22 hours, after which the plates were examined visually.

[2] = tested on: methicillin resistant Staphylococcus aureus (MRSA) strain USA300 (NRS384)
Protocol: as §1, §2

[3] = MRSA USA300 (NRS384), 35° C., 22 hours

| Structure (SMILES) | MIC (μg/mL) E. coli [1] | MIC (μg/mL) S. aureus [2, 3] | MIC (μg/mL) S. aureus ([2]; USA300, 22 h) |
| --- | --- | --- | --- |
| CCCCCCCCN1CCNC(C(=O)N[C@@H](CCCCN)C(=O)N[C@H](C(=O)N[C@@H](C)C(=O)N[C@@H](CCCCN)C(=O)N[C@@H](C)B2O[C@@H]3C[C@@H]4C[C@@H](C4(C)C)[C@]3(C)O2)[C@@H](C)O)C1 (stereo partly drawn) [Compound 279] (H-[X27]KTAK-{boroAla((+)-pinanediol)}) | >64 µg/mL | 10 µg/mL (≈ 11.4 µM) |  |
| CCCCCCCCCCNCCS(=O)(=O)N[C@@H](CCCCN)C(=O)N[C@H](C(=O)N[C@@H](C)C(=O)N[C@@H](CCCCN)C(=O)N[C@@H](C)B1O[C@@H]2C[C@@H]3C[C@@H](C3(C)C)[C@]2(C)O1)[C@@H](C)O [Compound 237] ({Ethanesulfonyl(2-NHDecyl)}-KTAK-{boroAla((+)-pinanediol)}) | 32 µg/mL (≈ 35.6 µM) | 0.35 µg/mL (≈ 0.389 µM) |  |
| CCCCCCCCCCNCCN[C@@H](CO)C(=O)N[C@H](C(=O)N[C@@H](C)C(=O)N[C@@H](CCCCN)C(=O)N[C@@H](C)B1O[C@@H]2C[C@@H]3C[C@@H](C3(C)C)[C@]2(C)O1)[C@@H](C)O [Compound 242] | 64 µg/mL (≈ 80.6 µM) | 4 µg/mL (≈ 5.04 µM) |  |
| CCCCCCCCCCNCCC(=O)N[C@@H](CCCCN)C(=O)N[C@H](C(=O)N[C@@H](C)C(=O)N[C@@H](CC(N)=O)C(=O)N[C@@H](C)B(O)O)[C@@H](C)O [Compound 221] ({Propanoyl(3-decylamino)}-KTAN-boroAla) | 64 µg/mL (≈ 89.5 µM) |  | 4 µg/mL (≈ 5.6 µM) |
| CCCCCCCCCCNCC(=O)N[C@@H](CCCCN)C(=O)N[C@H](C(=O)N[C@@H](C)C(=O)N[C@@H](CCCCN)C(=O)N[C@@H](C)B1O[C@@H]2C[C@@H]3C[C@@H](C3(C)C)[C@]2(C)O1)[C@@H](C)O [Compound 230] (H-[NDecylGly]KTAK-{boroAla((+)-pinanediol)}) | 32 µg/mL (≈ 37.7 µM) | 0.36 µg/mL (≈ 0.424 µM) |  |
| CCCCCCCCCCN(C)CCC(=O)N[C@@H](CCCCN)C(=O)N[C@H](C(=O)N[C@@H](C)C(=O)N[C@@H](CCCCN)C(=O)N[C@@H](C)B1O[C@@H]2C[C@@H]3C[C@@H](C3(C)C)[C@]2(C)O1)[C@@H](C)O [Compound 240] (X19-KTAK-{boroAla((+)-pinanediol)}) | 32 µg/mL (≈ 36.5 µM) | 1.4 µg/mL (≈ 1.6 µM) |  |
| CC(C)C#CC#Cc1ccc(C(=O)N[C@@H](CCN)C(=O)N[C@H](C(=O)N[C@@H](C)C(=O)N[C@@H](CCCCN)C(=O)N[C@@H](C)B2O[C@@H]3C[C@@H]4C[C@@H](C4(C)C)[C@]3(C)O2)[C@@H](C)O)cc1 [Compound 263] (X36-[Dab]TAK-{boroAla((+)-pinanediol)}) | 0.25 µg/mL (≈ 0.306 µM) | 0.71 µg/mL (≈ 0.868 µM) |  |
| C[C@H](NC(=O)[C@H](CCCCN)NC(=O)[C@H](C)NC(=O)[C@@H](NC(=O)C(NC(=O)c1ccc(-c2ccc(Cl)cc2)cc1)C1CNC1)[C@@H](C)O)B1O[C@@H]2C[C@@H]3C[C@@H](C3(C)C)[C@]2(C)O1 (stereo partly shown) [Compound 281] | 8 µg/mL (≈ 9.41 µM) | 4 µg/mL (≈ 4.7 µM) |  |
| C[C@H](NC(=O)[C@H](CCCCN)NC(=O)[C@H](C)NC(=O)[C@@H](NC(=O)C(NC(=O)c1ccc(-c2ccc(Cl)cc2)cc1)C1CNC1)[C@@H](C)O)B1O[C@@H]2C[C@@H]3C[C@@H](C3(C)C)[C@]2(C)O1 (stereo partly shown) [Compound 282] | 16 µg/mL (≈ 18.8 µM) | 8 µg/mL (≈ 9.41 µM) |  |
| CCCCCCCCCNCCCC(=O)N[C@@H](CCCCN)C(=O)N[C@H](C(=O)N[C@@H](C)C(=O)N[C@@H](CCCCN)C(=O)N[C@@H](C)B1O[C@@H]2C[C@@H]3C[C@@H](C3(C)C)[C@]2(C)O1)[C@@H](C)O [Compound 227] (X17-KTAK-{boroAla((+)-pinanediol)}) | 64 µg/mL (≈ 74.2 µM) |  | 2 µg/mL (≈ 2.32 µM) |
| C[C@H](NC(=O)[C@@H](NC(=O)[C@H](CCN)NC(=O)c1ccc(-c2ccc(Cl)cc2)cc1)[C@@H](C)O)C(=O)N[C@@H](CCCCN)C(=O)N[C@@H](C)C(=O)C(=O)O [Compound 247] ({Benzoyl(4-(4-Cl-Ph))}-[Dab]TAK-X22) | >64 µg/mL | 3.2 µg/mL (≈ 4.37 µM) |  |
| CCCCc1ccc(-c2ccc(S(=O)(=O)N[C@@H](CCN)C(=O)N[C@H](C(=O)N[C@@H](C)C(=O)N[C@@H](CCCCN)C(=O)N[C@@H](C)B(O)O)[C@@H](C)O)cn2)cc1 [Compound 233] (X18-[Dab]TAK-boroAla) | 8 µg/mL (≈ 10.5 µM) | 2 µg/mL (≈ 2.62 µM) |  |
| CCCCCCCCCCNCCC(=O)N[C@@H](CN)C(=O)N[C@H](C(=O)N[C@@H](C)C(=O)N[C@@H](CCCCN)C(=O)N[C@@H](C)B(O)O)[C@@H](C)O [Compound 220] ({Propanoyl(3-decylamino)}-[Dap]TAK-boroAla) | 16 µg/mL (≈ 23.3 µM) |  | 1 µg/mL (≈ 1.46 µM) |
| CCCCCCCCCCNCCC(=O)N[C@@H](CCCCN)C(=O)N[C@H](C(=O)N[C@@H](C)C(=O)N[C@@H](CN)C(=O)N[C@@H](C)C(=O)C(=O)O)[C@@H](C)O [Compound 257] ({Propanoyl(3-decylamino)}-KTA[Dap]-X22) | >64 µg/mL |  | 11 µg/mL (≈ 15.4 µM) |
| CCCCCCCCCCNCCS(=O)(=O)N[C@@H](CCCCN)C(=O)N[C@H](C(=O)N[C@@H](C)C(=O)N[C@@H](CCCCN)C(=O)N[C@@H](C)C(=O)C(=O)O)[C@@H](C)O [Compound 251] ({Ethanesulfonyl(2-NHDecyl)}-KTAK-X22) | >64 µg/mL |  | 0.5 µg/mL (≈ 0.63 µM) |
| CCCCCCCCCCNCC(=O)N[C@H](C(=O)N[C@@H](C)C(=O)N[C@@H](CCCCN)C(=O)N[C@@H](C)B1O[C@@H]2C[C@@H]3C[C@@H](C3(C)C)[C@]2(C)O1)[C@@H](C)O [Compound 229] (H-[NDecylGly]TAK-{boroAla((+)-pinanediol)}) | 64 µg/mL (≈ 88.8 µM) | 1.3 µg/mL (≈ 1.8 µM) |  |
| CCCCc1ccc(-c2ncc(C(=O)N[C@@H](CCN)C(=O)N[C@H](C(=O)N[C@@H](C)C(=O)N[C@@H](CCCCN)C(=O)N[C@@H](C)B3O[C@@H]4C[C@@H]5C[C@@H](C5(C)C)[C@]4(C)O3)[C@@H](C)O)cn2)cc1 [Compound 270] (X30-[Dab]TAK-{boroAla((+)-pinanediol)}) | 0.25 µg/mL (≈ 0.29 µM) | 0.25 µg/mL (≈ 0.29 µM) |  |
| CCCCc1ccc(-c2ccc(C(N[C@@H](CCCCN)C(=O)N[C@H](C(=O)N[C@@H](C)C(=O)N[C@@H](CC(C)C)C(=O)N[C@@H](C)B3O[C@@H]4C[C@@H]5C[C@@H](C5(C)C)[C@]4(C)O3)[C@@H](C)O)C(F)(F)F)cc2)cc1 (stereo partly shown) [Compound 277] | 4 µg/mL (≈ 4.32 µM) | 1.4 µg/mL (≈ 1.51 µM) |  |
| CCCCc1ccc(-c2ncc(C(=O)N[C@@H](CCN)C(=O)N[C@@H](CCCCN)C(=O)N[C@@H](C)C(=O)N[C@@H](CCCCN)C(=O)N[C@@H](C)B3O[C@@H]4C[C@@H]5C[C@@H](C5(C)C)[C@]4(C)O3)cn2)cc1 [Compound 271] (X30-[Dab]KAK-{boroAla((+)-pinanediol)}) | 0.13 µg/mL (≈ 0.146 µM) | 0.25 µg/mL (≈ 0.281 µM) |  |
| CCCCCCCCc1ccc(C(=O)N[C@@H](CCN)C(=O)N[C@H](C(=O)N[C@@H](C)C(=O)N[C@@H](CCCCN)C(=O)N[C@@H](C)B2O[C@@H]3C[C@@H]4C[C@@H](C4(C)C)[C@]3(C)O2)[C@@H](C)O)c(C)c1 [Compound 273] (X26-[Dab]TAK-{boroAla((+)-pinanediol)}) | 0.13 µg/mL (≈ 0.152 µM) | 0.13 µg/mL (≈ 0.152 µM) |  |
| C[C@H](NC(=O)[C@H](CCCCN)NC(=O)[C@H](C)NC(=O)[C@@H](NC(=O)[C@H](CCCCN)NS(=O)(=O)c1ccc(-c2ccccc2)cn1)[C@@H](C)O)B1O[C@@H]2C[C@@H]3C[C@@H](C3(C)C)[C@]2(C)O1 [Compound 231] (X31-KTAK-{boroAla((+)-pinanediol)}) | >64 µg/mL | 32 µg/mL (≈ 36.8 µM) |  |
| C[C@H](NC(=O)[C@H](CCCCN)NC(=O)[C@H](C)NC(=O)[C@@H](NC(=O)[C@H](CCN)NS(=O)(=O)c1ccc(-c2ccc(Cl)cc2)nc1)[C@@H](C)O)B1O[C@@H]2C[C@@H]3C[C@@H](C3(C)C)[C@]2(C)O1 [Compound 234] (X21-[Dab]TAK-{boroAla((+)-pinanediol)}) | 32 µg/mL (≈ 36.6 µM) | 16 µg/mL (≈ 18.3 µM) |  |
| CCCCCCCCCCNC[C@@H](N)C(=O)N[C@H](C(=O)N[C@@H](C)C(=O)N[C@@H](CCCCN)C(=O)N[C@@H](C)B1O[C@@H]2C[C@@H]3C[C@@H](C3(C)C)[C@]2(C)O1)[C@@H](C)O [Compound 241] | 32 µg/mL (≈ 42.7 µM) | 1 µg/mL (≈ 1.33 µM) |  |
| CCCCCCCCCNCCCC(=O)N[C@@H](CCCCN)C(=O)N[C@H](C(=O)N[C@@H](C)C(=O)N[C@@H](CCCCN)C(=O)N[C@@H](C)B(O)O)[C@@H](C)O [Compound 228] (X17-KTAK-boroAla) | >64 µg/mL |  | 2 µg/mL (≈ 2.74 µM) |
| CCCCCCCCCCN(C)CCS(=O)(=O)N[C@@H](CCCCN)C(=O)N[C@H](C(=O)N[C@@H](C)C(=O)N[C@@H](CCCCN)C(=O)N[C@@H](C)B1O[C@@H]2C[C@@H]3C[C@@H](C3(C)C)[C@]2(C)O1)[C@@H](C)O [Compound 245] (X29-KTAK-{boroAla((+)-pinanediol)}) | 32 µg/mL (≈ 35 µM) | 0.35 µg/mL (≈ 0.383 µM) |  |
| CCCCCCCCCCNCCS(=O)(=O)N[C@@H](CCN)C(=O)N[C@H](C(=O)N[C@@H](C)C(=O)N[C@@H](CCCCN)C(=O)N[C@@H](C)B1O[C@@H]2C[C@@H]3C[C@@H](C3(C)C)[C@]2(C)O1)[C@@H](C)O [Compound 239] ({Ethanesulfonyl(2-NHDecyl)}-[Dab]TAK-{boroAla((+)-pinanediol)}) | 4 µg/mL (≈ 4.59 µM) | 0.25 µg/mL (≈ 0.287 µM) |  |
